Source: paper PMC8131363 (Scientific Reports, 2021)
Where a name gives a salt, the structure may show the parent alone. Read-outs that look alike come from different tables or passages of the source.

How the values were obtained:
[1] = target: T1, cCaSR (Felis catus, UniProt C7FF08); assay: cell-based
T1 sequence (C7FF08 1-1081): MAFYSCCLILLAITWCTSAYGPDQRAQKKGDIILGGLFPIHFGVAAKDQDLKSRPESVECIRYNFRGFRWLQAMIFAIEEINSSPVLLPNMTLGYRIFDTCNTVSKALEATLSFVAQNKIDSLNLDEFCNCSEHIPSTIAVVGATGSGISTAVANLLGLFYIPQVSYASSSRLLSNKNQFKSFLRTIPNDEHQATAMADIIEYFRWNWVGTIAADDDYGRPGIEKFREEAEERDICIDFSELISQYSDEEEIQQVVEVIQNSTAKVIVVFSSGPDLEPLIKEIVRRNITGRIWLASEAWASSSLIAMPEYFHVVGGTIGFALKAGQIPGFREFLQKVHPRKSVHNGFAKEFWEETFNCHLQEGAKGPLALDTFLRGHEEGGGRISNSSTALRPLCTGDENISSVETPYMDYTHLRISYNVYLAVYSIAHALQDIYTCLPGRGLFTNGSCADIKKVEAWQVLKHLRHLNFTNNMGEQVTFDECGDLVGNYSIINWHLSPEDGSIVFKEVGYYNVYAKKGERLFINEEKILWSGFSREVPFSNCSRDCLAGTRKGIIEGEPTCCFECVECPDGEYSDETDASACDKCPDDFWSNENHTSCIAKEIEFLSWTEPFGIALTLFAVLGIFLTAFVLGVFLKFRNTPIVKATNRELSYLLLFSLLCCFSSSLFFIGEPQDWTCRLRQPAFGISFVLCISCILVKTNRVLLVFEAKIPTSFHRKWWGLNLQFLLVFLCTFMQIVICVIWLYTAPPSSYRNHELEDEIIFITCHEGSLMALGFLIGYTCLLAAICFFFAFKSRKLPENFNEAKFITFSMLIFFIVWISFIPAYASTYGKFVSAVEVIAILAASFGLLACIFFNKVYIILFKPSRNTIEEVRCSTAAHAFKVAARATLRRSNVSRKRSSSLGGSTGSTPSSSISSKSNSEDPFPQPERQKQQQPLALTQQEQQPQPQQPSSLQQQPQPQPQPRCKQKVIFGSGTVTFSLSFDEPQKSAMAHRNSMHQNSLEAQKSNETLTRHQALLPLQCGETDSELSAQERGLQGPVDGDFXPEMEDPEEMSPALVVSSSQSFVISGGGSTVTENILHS

[2] = target: T1, cCaSR; assay: cCaSR PAM luminescence assay, double injection with 0.5 mM CaCl2, HEK293/T-REx/natClytin-cCaSR
[3] = target: T1, cCaSR
[4] = cCaSR activity, agonist assay, stable inducible cCaSR line, at least three wells
[5] = Supplementary Table I, PAM assay, dash = no activity
[6] = EC50 (M), agonist assay, stable inducible cCaSR line, > 0.01 M = maximal response not reached
[7] = EC50 Ago (M), Supplementary Table I, agonist assay, > 0.01 M = maximal response not reached
[8] = Supplementary Table I, agonist assay, dash = no activity
[9] = agonist assay, stable inducible cCaSR line, > 0.01 M = maximal response not reached
[10] = read-out: EC50 Ago, Supplementary Table I, agonist assay, > 0.01 M = maximal response not reached
[11] = read-out: cCaSR activity, agonist assay, stable inducible cCaSR line, at least three wells

| Compound | EC50 PAM (M) [2, 5] | EC50 Ago (M) [3, 8] | also measured |
| --- | --- | --- | --- |
| CC[C@H](NC(=O)CC[C@H](N)C(=O)O)C(=O)O | - |  | EC50 [1, 4]: > 0.01 M |
| NC(CC(F)C(=O)O)C(=O)O (racemic) [4-Fluoro-DL-glutamic acid] | - |  | EC50 [1, 4]: > 0.01 M |
| NC(CCP(=O)(O)O)C(=O)O (stereo not drawn) [2-Amino-4-phosphonobutyric acid] | - |  | EC50 [1, 4]: > 0.01 M |
| N[C@@H](C[C@H](O)C(=O)O)C(=O)O [2S,4S-g-Hydroxy-L-glutamic acid] | - |  | EC50 [1, 4]: > 0.01 M |
| N[C@@H](CCC(=O)N[C@@H](CSCc1c[nH]c2ccccc12)C(=O)NCC(=O)O)C(=O)O [3-Glutathionyl-S-methylindole] | - |  | EC50 [1, 6]: 0.00374 M; EC50 [1, 7]: 0.00375 M; EC50 [1, 4]: 0.001 to 0.01 M |
| CNC(C)C1CCC(N)C(OC2C(N)CC(N)C(OC3OCC(C)(O)C(NC)C3O)C2O)O1 (stereo not drawn) [Gentamicin, reference compound] | - |  | EC50 [1, 6]: 0.000989 M; EC50 [1, 7]: 0.00099 M |
| N[C@@H](CCCC(=O)O)C(=O)O [L-2-Aminoadipic acid] | - |  | EC50 [1, 4]: > 0.01 M |
| N[C@@H](CP(=O)(O)O)C(=O)O [L-( +)-2-Amino-3-phosphonopropionic acid, L-(+)-2-Amino-3-phosphonopropionic acid] |  |  | EC50 ([1]; cCaSR activity): > 0.01 M; EC50 PAM (M) [2]: - |
| COC(=O)CC[C@H](N)C(=O)O [L-Glutamic Acid 5-Methyl Ester] | - | - |  |
| NC(=O)CC[C@H](N)C(=O)O [L-Glutamine] | - | - |  |
| N[C@@H](Cc1c[nH]cn1)C(=O)O [L-Histidine] | - | - |  |
| N[C@@H](CCS(=O)(=O)O)C(=O)O [L-Homocysteic acid] | - |  | EC50 [1, 4]: > 0.01 M |
| N[C@@H](CCO)C(=O)O [L-Homoserine] | - | - |  |
| CC[C@H](C)[C@H](N)C(=O)O [L-Isoleucine] | - | - |  |
| CSCC[C@H](N)C(=O)O [L-Methionine] |  |  | EC50 Ago (M) [3]: -; EC50 PAM (M) [2]: - |
| N[C@@H](C[Se][Se]C[C@H](N)C(=O)O)C(=O)O.O [L-Selenocystine monohydrate] | - | - |  |
| N[C@@H](CO)C(=O)O [L-Serine] | - | - |  |
| NCCNCCCNCCN [N,N'-Bis(2-aminoethyl)-1,3-propanediamine] |  |  | EC50 Ago (M) [3]: -; EC50 PAM (M) [2]: - |
| CNC(=N)NCCC[C@H](N)C(=O)O [NG-methyl L Arginine] | - | - |  |
| COC(=O)[C@@H](N)CCCNC(=N)N[N+](=O)[O-].Cl [Nω-Nitro-L-arginine methyl ester hydrochloride] | - | - |  |
| NC[C@@H]1O[C@H](O[C@H]2[C@@H](O)[C@H](O[C@@H]3[C@@H](O)[C@H](N)C[C@H](N)[C@H]3O[C@H]3O[C@H](CO)[C@@H](O)[C@H](O)[C@H]3N)O[C@@H]2CO)[C@H](N)[C@@H](O)[C@@H]1O [Paromomycin sulfate salt, reference compound] | - |  | EC50 [1, 6]: 0.00108 M; EC50 [1, 7]: 0.00108 M |
| Cc1ccc(C2(CCNC(C)c3ccc(Cl)cc3)CCOC(C)(C)C2)cc1 (stereo not drawn) [Vitas M Labs Express Pick - STK530456] |  | - | EC50 ([2]; read-out: EC50 PAM, Supplementary Table I, positive allosteric modulator, presence of Ca2+): 0.0261 mM |
| N[C@@H](CCCCNC(=O)CC[C@H](N)C(=O)O)C(=O)O [γ-Glu-Lys] | - | - |  |
| Poly-L-lysine | - |  | EC50 [3, 11]: > 10 mM |

Further lines, with some results ahead:

| EC50 PAM (M) [2, 5] | EC50 Ago (M) [3, 8] | Compound | also measured |
| --- | --- | --- | --- |
| - |  | NC(CC(C(=O)O)C(=O)O)C(=O)O (racemic) [γ-Carboxy-DL-glutamic acid] | EC50 [1, 4]: > 0.01 M |
| - | - | CC(C)C[C@H](N)C(=O)O [L-Leucine] |  |
| - | - | NCCC[C@H](N)C(=O)O [L-Ornithine] |  |
| - | - | O=C(O)[C@@H]1CCCN1 [L-Proline] |  |
| - | - | C[C@@H](O)[C@H](N)C(=O)O [L-Threonine] |  |
| - | - | N[C@@H](Cc1ccc(O)cc1)C(=O)O [L-Tyrosine] |  |
| - | - | CC(C)[C@H](N)C(=O)O [L-Valine] |  |
| - |  | O=P(O)(O)CP(=O)(O)O [Methylenediphosphonic acid] | EC50 [3, 9]: 1.29 mM; EC50 [3, 10]: 1.29 mM |
| - | - | CN(C)C(N)=NCCC[C@H](N)C(=O)O.Cl.Cl [NG,NG-Dimethylarginine dihydrochloride] |  |
| - | - | COC(=O)[C@@H](N)CCCNC(N)=N[N+](=O)[O-] [NG-Nitro-L-Arginine Methyl Ester] |  |
| - | - | CC(C)(Cc1ccc2ccccc2c1)NC[C@@H](O)COc1cccc(Cl)c1C#N [NPS 2143, reference compound] |  |
| - |  | O=S(=O)([O-])C(F)(F)F.O=S(=O)([O-])C(F)(F)F.O=S(=O)([O-])C(F)(F)F.[Pr+3] [Pr^3+, Praseodymium(III) trifluoromethanesulfonate] | EC50 [3, 9]: 0.398 mM; EC50 [3, 10]: 0.398 mM; EC50 [3, 11]: < 1 mM |
| - | - | CC1(C)N[C@H](C(=O)O)Cc2c1[nH]c1ccccc21 [S-1,1-dimethyl-2,3,4,9-tetrahydro-1H-pyrido[3,4-b]indole-3-carboxylic acid] |  |
| - | - | NC[C@H](N)C(=O)O [S-2,3-diaminopropanoic acid] |  |
| - | - | O=C(O)[C@@H]1CNCCN1 [S-piperazine-2-carboxylic acid] |  |
| - | - | O.O.O.O.O.O.O.O.O.O.O=P([O-])([O-])OP(=O)([O-])[O-].[Na+].[Na+].[Na+].[Na+] [Sodium pyrophosphate tetrabasic decahydrate] |  |
| - |  | NCCCNCCCCNCCCN [Spermine] | agonist activity on cCaSR (in words) [3]: agonists |
| - |  | [Sr+2] [Sr^2+] | EC50 [3, 11]: > 10 mM |
| - | - | OC[C@H]1O[C@H](O[C@]2(CCl)O[C@H](CCl)[C@@H](O)[C@@H]2O)[C@H](O)[C@@H](O)[C@H]1Cl [Sucralose] |  |
| - | - | OC[C@H]1O[C@@](CO)(O[C@H]2O[C@H](CO)[C@@H](O)[C@H](O)[C@H]2O)[C@@H](O)[C@@H]1O [Sucrose] |  |
| - | - | NCCS(=O)(=O)O [Taurine] |  |
| - |  | CC(=O)[O-].CC(=O)[O-].CC(=O)[O-].O.[Tb+3] [Tb^3+, Terbium(III) acetate hydrate] | EC50 [3, 9]: 0.175 mM; EC50 [3, 10]: 0.175 mM; EC50 [3, 11]: < 1 mM |
| - | - | NCCCC[C@H](NC(=O)C[C@H](N)C(=O)O)C(=O)O [β-Asp-Lys] |  |
| - | - | CCOC(=O)CNC(=O)[C@H](CS)NC(=O)CC[C@H](N)C(=O)O [γ-Glu-Cys-Gly-Oet] |  |
| - | - | N[C@@H](CCC(=O)NCC(=O)NCC(=O)O)C(=O)O [γ-Glu-Gly-Gly] |  |
| - | - | N[C@@H](CCC(=O)N[C@@H](Cc1cnc[nH]1)C(=O)O)C(=O)O [γ-Glu-His] |  |
| - | - | Poly-L-histidine |  |
